The values that follow come from paper PMC5913971, “A Novel Piperazine-Based Drug Lead for Cryptosporidiosis from the Medicines for Malaria Venture Open-Access Malaria Box” (Antimicrobial Agents and Chemotherapy, 2018).

On the set-up of data set [1]: method as in PMID 27467575. The settings on record: human; cited from earlier work.
On the set-up of data set [2]: method as in PMID 27467575. The settings on record: single oral dose of 55 mg/kg; cited from earlier work.
The subject of data set [3] is C. parvum Iowa isolate. Briefly: NOD SCID gamma (NSG) mouse model of chronic cryptosporidiosis, fecal qPCR. The class given is in vivo, NOD SCID gamma mice. How it is done: All NOD SCID gamma mouse studies were performed in compliance with animal care guidelines and were approved by the University of Vermont Institutional Animal Care and Use Committee. NOD SCID gamma mice with normal flora (NOD.Cg-Prkdc^scid Il2rg^tm1Wjl/SzJ) ([38]) were purchased from The Jackson Laboratory (Bar Harbor, ME, USA) and were housed for at least a week for acclimatization. At the age of 4 to 5 weeks, mice were infected with 10^5 C. parvum Iowa isolate oocysts. Fecal oocyst shedding is detected 6 days after infection using a quantitative PCR (qPCR assay), so treatment was started on day 7 after infection. Mice (4 per experimental group) were treated either orally (p.o.) with MMV665917 at 30 or 60 mg/kg BID, intraperitoneally (i.p.) with MMV665917 at 60 mg/kg BID, or p.o. with 1,000 mg/kg paromomycin BID. MMV665917 was suspended in DMSO, sonicated three times, for 30 s each time, to obtain a fine suspension, aliquoted, and stored at −80°C for <10 days. On the day of treatment, aliquots of MMV665917 diluted in DMSO were thawed, mixed well using a vortexer, diluted with 1% HPMC, sonicated as before (three times for 30 s each time), mixed well, and given to mice either p.o. or by i.p. injection. A final concentration of 5% DMSO was used in 100 μl of 1% HPMC per dose. For the additional Malaria Box compounds and compound variants tested, the doses were prepared in the same way, and the specific dosages tested are given in Table S3 in the supplemental material. Mice were treated for either 4 or 7 days, allowed to recover for a week, and then sacrificed. Oocyst shedding in feces was monitored throughout by qPCR, including time points while on treatment and while monitoring for relapsed infection following completion of treatment in Fig. 2A.
For orientation: In qPCR the cycle at which signal appears reflects the starting amount.

Data set [4] has as its system C. parvum. Briefly: Parasite persistence (time-kill) assay in HCT-8 cells. Type of data set: cell-based, Cryptosporidium parvum. Here is the method: Excysted C. parvum oocysts were added to >90% confluent HCT-8 cells in 384-well plates. […] At ∼24 h (i.e., the time of compound addition) and at various time intervals thereafter, parasites were washed, fixed, permeabilized, stained, and imaged as for the C. parvum growth assay. For the extended-compound-exposure experiments, the medium and compound were replaced every 3 days. A separate 384-well plate was used for each time interval. Parasite numbers were normalized to host cell nucleus numbers and are expressed as the percentage of parasites per host cell nucleus. In order to fit parasite decay curves, the effect of drugs was isolated from expected changes in parasite numbers over time by expressing the number of parasites as the percentage of the number of parasites with the control, dimethyl sulfoxide (DMSO), for each time point. Exponential decay curves were fit using GraphPad Prism software, version 6.01, and curve validity was assessed using the replicates test.

In data set [5] the test system is cytochrome P450 (CYP) isoforms (1A2, 2C9, 2C19, 2D6, 3A4-M, and 3A4-T). Details: method as in PMID 27467575. The settings on record: at 10 μM; cited from earlier work.
The test system of data set [6] is five mammalian cell lines. Briefly: Toxicity profiling in mammalian cell lines. The settings on record: based on previously reported toxicity profiling.

Some results are limits rather than exact numbers.

Turning to `O=C(Nc1ccc(Cl)cc1)N1CCN(c2ccc3nncn3n2)CC1` [MMV665917, Clc1ccc(NC(=O)N2CCN(CC2)c3ccc4nncn4n3)cc1], the plasma protein binding in data set [1] is given as 88.8%. Further, the “plasma MMV665917 levels over time” value in data set [2] is “continued to increase for 9 h”. For the same compound, the “reduction of oocyst shedding” value in data set [3] (30 mg/kg orally twice daily, 7 days, from day 7 after infection) was more than 90%. In data set [3] (60 mg/kg BID p.o. or i.p., Fig. 4A), the “efficacy, oral versus intraperitoneal dosing” value is on record as “equally efficacious regardless of the route of administration”. Further, the “relapse after cessation of treatment” value in data set [3] (MMV665917 30 mg/kg orally twice daily, 7 days) is given as “relapsed”. Besides, the “outcome after cessation of treatment” value in data set [3] (MMV665917 60 mg/kg orally twice daily, 7 days) is on record as “apparently cured”. For the same compound, in data set [3] (dose 30 mg/kg, interval 12 h, duration 4 days), the NSG efficacy entry is “efficacious”. In data set [4], the “concentration giving maximal rate of parasite elimination” value came to 3 × EC90 and the “parasiticidal or parasitistatic for C. parvum” value is given as “parasiticidal”. The “decay rate constant (r)” value in data set [4] (3× EC90, one-phase exponential decay) is given as 0.05346. In data set [4] (12× EC90, one-phase exponential decay), the “decay rate constant (r)” value is 0.05864. For the same compound, in data set [4] (day 13 of treatment, 12 × EC90, medium and drug replaced every 3 days), the “percentage of host cells infected, extended treatment” value is approximately 0.1%. Besides, in data set [5], the “inhibition of six CYP isoforms” value was “low inhibition”. For the same compound, the “selectivity index (SI) for C. parvum over five mammalian cell lines” value in data set [6] is given as more than 20.
